Like-named read-outs stand apart in the source and are kept apart here.
Experiments:
[1] = in vivo; settings: po, mouse, preliminary, read-out: Toxicity (LD50)
[2] = test system: KB-8-5 cells; experiment: cytotoxicity (IC50) of the test substance, MTT/formazan color reaction; format: cell-based; settings: Homo sapiens, 120 h
Description: (§1) KB-8-5 cells, a human cell line with multiple resistance to cytostatics, and KB-3-1 cells, a correspondingly sensitive cell line [Cell. Mol. Genet. 11, 117-126, (1985) and Science 232, 643-645, (1986)], were cultivated in suitable media [Cancer Res. 94, 267-275, (1984), Exp. Hematol. 12, 559-567, (1984), Eliason, Ramuz & Kaufmann in Int. J. Cancer 46, 113-117, (1990)].
(§2) The biological test is based on the ability of the test substance to lower the concentration of a standard cytostatic which is required to kill 50% of the cells. The testing and the determination of cytotoxicity are based on the ability of living cells to reduce 3-(4,5-dimethylthiazol-2-yl)-2,5-diphenyltetrazolium bromide to the corresponding blue formazan (colorimetric measurement) [J. Immunol. Methods 65, 55-63, (1985)]. The cells were incubated for 2 days in separate containers. The compounds selected for the biological investigation were added to the cell cultures in such a manner that the serial concentrations 10^-8 M, 10^-7 M, 10^-6 M, 10^-5 M and 10^-4 M were achieved. Vincristine in 4 dilution series (3·10^-9 M, 10^-8 M, 3·10^-8 M and 10^-7 M for KB-8-5 cells and 30 times less for the KB-3-1 cells) was added thereto. After incubating for 5 days the cell count was measured at 540 nm using the formazan color reaction. The evaluation was carried out by calculating a resistance modification index, RMI, which is the ratio between the IC50 value of vincristine in the absence of a test substance and the IC50 value of vincristine in the presence of a test substance. [formula]
In order to compare all activities of compounds from different classes, a RMI0.1 is defined: this is the RMI value of a substance which is obtained with the ten-fold lower concentration than the IC50 value. (RMI0.1 ≡RMI at 0.1·IC50 of the substance). […] The preliminary toxicological data (LD50, mouse) after oral administration of the test compound are also given.

[3] = test system: KB-8-5 cells; experiment: resistance modification index (RMI) test with vincristine in multidrug-resistant cells (formazan colorimetric measurement); format: cell-based, human; settings: RMI at 0.1·IC50 of the substance; RMI = IC50 vincristine without / with test substance; n = 2 (A-E) or 4 (verapamil)
Description: The modifying activity of multiple resistance to cytostatics of the compounds of formula I, of rac-N-(3,4-dimethoxyphenethyl)-2-(3,4-dimethoxyphenyl)-β,N-dimethyl-m-dithiane-2-propanamine and of usual reference substances was investigated as follows:
as §1
as §2, with “The” for “The biological test is based on the ability of the test substance to lower the concentration of a standard cytostatic which is required to kill 50% of the cells. The”
(RMI0.1 ≡RMI at 0.1·IC50 of the substance).

[4] = background statement, no test given; cited from earlier work
[5] = test system: multiple resistance to cytostatics (multidrug resistance); experiment: elimination of multiple resistance to cytostatics (literature and background statements); settings: compared with compounds of formula I
[6] = test system: multiple resistance to cytostatics (multidrug resistance); settings: literature; cited from earlier work

Structure (SMILES)	LD50 [1] [mg/kg]	IC50 ([2]; read-out: IC50) [µM]	Vincristine RMI0.1 [3]	activity in eliminating multiple resistance [6]	further results
COc1ccc(CCN(C)CC(C)CC2(c3ccc(Cl)cc3)SCCCS2)cc1OC.Cl (racemic) [A, rac-2-(4-Chlorophenyl)-N-(3,4-dimethoxyphenethyl)-β,N-dimethyl-m-dithiane-2-propanamine hydrochloride]	1250 to 2500	14	216		
COc1ccc(CCN(C)CC(C)CC2(c3ccc(C)cc3)SCCCS2)cc1OC.Cl (racemic) [B, rac-N-(3,4-dimethoxyphenethyl)-β,N-dimethyl-2-(4-tolyl)-m-dithiane-2-propanamine hydrochloride]	625 to 1250	14	159		
COc1ccc(C2(CN(C)CC(C)CC3(c4cc(OC)c(OC)c(OC)c4)SCCCS3)CCC2)cc1OC.Cl (racemic) [C, rac-N-[[1-(3,4-dimethoxyphenyl)cyclobutyl]methyl]-β,N-dimethyl-2-(3,4,5-trimethoxyphenyl)-m-dithiane-2-propanamine hydrochloride]	1000 to 2000	21	224		
COc1ccc(C2(CN(C)CC(C)CC3(c4ccc(OC)c(OC)c4)SCCCS3)CCC2)cc1OC.Cl (racemic) [D, rac-2-(3,4-dimethoxyphenyl)-N-[[1-(3,4-dimethoxyphenyl)cyclobutyl]methyl]-β,N-dimethyl-m-dithiane-2-propanamine hydrochloride]	1000 to 2000	21	163		
COc1ccc(C2(CC(C)CN(C)CCc3ccc(Cl)cc3)SCCCS2)cc1OC.Cl (racemic) [E, rac-N-(4-chlorophenethyl)-2-(3,4-dimethoxyphenyl)-β,N-dimethyl-m-dithiane-2-propanamine hydrochloride]	2500 to 5000	7.7	24		
COc1ccc(CCN(C)CCCC2(c3ccc4ccccc4c3)SCCCS2)cc1OC (racemic) [rac-N-(3,4-dimethoxyphenethyl)-N-methyl-2-(2-naphthyl)-m-dithiane-2-propanamine]				certain activity in partially or completely eliminating multiple resistance	toxicity [4]: relatively toxic; activity vis-a-vis the novel compounds of formula I [5]: clearly lower activity
COc1ccc(CCN(C)CCC[C@](C#N)(c2ccc(OC)c(OC)c2)C(C)C)cc1OC [(+)Verapamil, reference compound]			12		IC50 [2]: 62 µM
COc1ccc(CCN(C)CCC[C@@](C#N)(c2ccc(OC)c(OC)c2)C(C)C)cc1OC [(-)Verapamil, reference compound]			47		IC50 [2]: 72 µM
C=C[C@H]1C[N@@]2CC[C@H]1C[C@@H]2[C@@H](O)c1ccnc2ccc(OC)cc12 [quinidine]				certain activity in partially or completely eliminating multiple resistance	
CN1CCN(CCCN2c3ccccc3Sc3ccc(C(F)(F)F)cc32)CC1 [trifluoperazine]				certain activity in partially or completely eliminating multiple resistance	
COc1ccc(CCN(C)CCCC(C#N)(c2ccc(OC)c(OC)c2)C(C)C)cc1OC (stereo not shown) [verapamil]				certain activity in partially or completely eliminating multiple resistance	
